Data published in publication PMC6844378, “Structure activity relationship studies on Amb639752: toward the identification of a common pharmacophoric structure for DGKα inhibitors” (Journal of Enzyme Inhibition and Medicinal Chemistry, 2019).

Experiments:
[1] = test system: SAP-deficient T cells; assay: RICD assay in SAP silenced T cells; format: cell-based, human; conditions: 10 µM, 30 min pre-treatment, OKT3 10 ng/mL, 24 h; for rescue of RICD (apoptosis) in SAP-deficient T cells: SAP siRNA
Procedure: PBL were isolated from healthy anonymous human donors by Ficoll-Paque PLUS (GE Healthcare, Chicago, IL) density gradient centrifugation, washed, and resuspended at 2 × 10^6 cell/mL in RPMI-GlutaMAX containing 10% heat inactivated FCS, 2 mM glutamine, and 100 U/mL of penicillin and streptomycin. T cells were activated with 1 µg/mL anti-CD3 (UCHT1) and anti-CD28 (clone CD28.2) antibodies. After three days, activated T cells were washed and cultured in medium additionated of 100 IU/mL rhIL-2 (Peprotech, Rocky Hill, NJ) at 1.2 × 10^6 cells/mL for ≥7 days by changing media for every 2–3 days.
Activated human PBLs were transfected with 200 pmol of siRNA oligonucleotides specific for the target protein (Stealth Select siRNA; Life Technologies, Carlsbad, CA) or a non-specific control oligo (Life Technologies, Carlsbad, CA). Transient transfections were performed using Amaxa nucleofector kits for human T cells (Lonza, Basel, Switzerland) and the Amaxa Nucleofector II or 4D systems (programmes T-20 or EI-115). Cells were cultured in IL-2 (100 IU/mL) for four days to allow target gene knockdown. Knockdown efficiency was periodically evaluated by Western blotting.
To test restimulation induced cell death, activated T cells (10^5 cells/well) were plated in triplicate in 96-well round-bottom plate and treated with anti-CD3 (clone OKT3) (10 ng/mL) in RPMI-GlutaMAX supplemented with 100 IU/mL rhIL-2 for 24 h. In these assays, inhibitors (10 µM) were added 30 min before the restimulation with OKT3. 24 h after treatment, cells were stained with 20 ng/mL propidium iodide and collected for a constant time of 30 s per sample on Attune Nxt Flow Cytometer (Thermo Fisher Scientific, Waltham, MA). Cell death is expressed as % cell loss and calculated as: % cell loss=(1−(number of viable cells in sample/number of viable cells in control)×100)
Results were expressed as mean ± standard error of the mean (SEM). We always compared controls and SAP silenced lymphocytes from the same donors as there is a large individual variability in RICD sensitivity.
To evaluate inhibitor efficacy in physiological context, we modelled XLP-1 by silencing SAP in primary peripheral blood T lymphocytes (PBLs) and restimulating them with anti-CD3 antibody (OKT3 10 ng/mL, 24 h). We pre-treated the cells with the indicated inhibitors for 30 min at a concentration of 10 µM[8].
Figure 9. DGKα inhibitors partially restores apoptosis in SAP deficient lymphocytes. […] After 4 days, the cells were restimulated with CD3 agonist OKT3 (10 ng/mL) in presence of respective inhibitor. Vehicle (DMSO) was used as control. Twenty-four hours later, the % of cell loss was evaluated by PI staining. Data are the mean ± SEM of nine independent experiments performed in triplicate.

[2] = biological target: DGKα (Homo sapiens, UniProt P23743); assay: DGK assay on OST-DGKα enriched MDCK homogenates; format: biochemical; design: expressed in transfected cells; host or cells: MDCK cells (vector-infected, doxycycline-induced), crude homogenate; conditions: for remaining activity at 100 µM: percentage of residual DGKα activity compared to DMSO control, OST-DGKα overexpressing cell lysates, saturating DAG and ATP, read-out: Residue activity at 100 µM; for IC50: residual OST-DGKα activity at 0.1, 1.0, 10.0 and 100.0 µM
Procedure: Madin-Darby canine kidney (MDCK) cells stably expressing One Strep Tag DGKα (OST-DGKα) were prepared by infecting MDCK cells with a vector expressing an inducible OST tagged DGKα constructs. MDCK cells infected with empty vector were used as controls. MDCK cells were cultured in MEM (minimal essential medium) with 5% FBS (foetal bovine serum) and 1% antibiotic–antimycotic solution. Routinely, cells were splitted every 3–4 days with trypsin–EDTA 0.25% in standard 100 mm dishes.
Large cultures of MDCK cells for enzyme preparation were done by plating 5 × 10^6 cells in 245 mm^2 dishes. Once they reached nearly 70% confluence, cells were treated with doxycycline (1 µg/mL, two days). […] Cells were collected with a rubber scraper, homogenised by passing them through a 29 G-needle syringe 20 times and stored in aliquots at –80 °C. Presence of OST-DGKα was confirmed by western blotting and enzyme assay, transduced DGKα has an activity >100 folds the endogenous DGK.
Essentionally, the same procedure was followed as reported previously in Velnati et al.[9] In brief, DGK activity was assayed by measuring initial velocities (5 min at 27 °C) in presence of saturating substrate concentrations. Reaction conditions: 0.9 µg/µL 1,2-dioleoyl-sn-glycerol, 5 mM ATP, 0.01 µCi/µL [γ^32P]-ATP, 1 mM sodium orthovanadate, 10 mM MgCl2, 1.2 mM EGTA in 7.5 mM Hepes pH 8[12]. Reaction mixture is assembled mixing enzyme (24.5 µL of homogenate), 100× inhibitor or DMSO (0.5 µL), 5× ATP solution (10 µL of 25 mM ATP, 0.05 µCi/µL [γ^32P]-ATP (Perkin-Elmer, Milan, Italy), 5 mM sodium orthovanadate, 50 mM MgCl2), and 3.3× DAG solution (15 µL of 3 µg/µL 1,2-dioleoyl-sn-glycerol resuspended by sonication in 4 mM EGTA in 25 mM Hepes pH 8). The reaction was stopped after 5 min by adding 200 µL of freshly prepared 1 M HCl and lipid was extracted by adding 200 µL of CH3OH:CHCl3 1:1 solution and vortexing for 1 min. The two phases were separated by centrifugation (12,000 RCF for 2 min). Twenty-five microlitres of the lower organic phase was spotted in small drops on silica TLC plates. TLC was run 10 cm and dried before radioactive signals were detected by GS-250 molecular imager and was quantified by quantity one (Bio-Rad, Hercules, CA) software assuring the absence of saturated spots.
Percentage residual activity was calculated as follows: (OST-DGKα homogenate with inhibitor – vector homogenate)/(OST-DGKα homogenate with DMSO – vector homogenate)×100.
Data for the screen on OST-DGKα homogenates are the mean of duplicates. The compounds showing inhibitory activity in this assay were tested >4 times and the mean ± SEM is reported.
To calculate IC50 values of active inhibitors, the inhibitor activity was measured at least three times at 0.1, 1.0, 10.0, and 100.0 µM concentration. Data were analysed using [inhibitor] vs. normalised response parameters with least square [ordinary] curve fitting method in GraphPad PRISM 8.0 software (GraphPad Software, La Jolla, CA) mentioning 95% confidence interval and IC50 values always greater than 0.0. […] In all the experiments, the data were normalised with the controls.
Each inhibitor was tested in duplicate at least once, and DGKα activity was expressed as percentage of residual DGKα activity compared to DMSO control in the same assay. Assay uses OST-DGKα overexpressing cell lysates in presence of saturating exogenous DAG and ATP. We considered R59022 (commercially available) and the lead compound Amb63975230 as our reference molecules.
To measure the inhibitor potency, we determined the IC50 values for the compounds that resulted active when tested at 100 µM by measuring the residual OST-DGKα activity over a dose range of inhibitor concentrations (0.1 µM, 1.0 µM, 10.0 µM, and 100.0 µM).

Chain of DGKα (P23743 whole entry): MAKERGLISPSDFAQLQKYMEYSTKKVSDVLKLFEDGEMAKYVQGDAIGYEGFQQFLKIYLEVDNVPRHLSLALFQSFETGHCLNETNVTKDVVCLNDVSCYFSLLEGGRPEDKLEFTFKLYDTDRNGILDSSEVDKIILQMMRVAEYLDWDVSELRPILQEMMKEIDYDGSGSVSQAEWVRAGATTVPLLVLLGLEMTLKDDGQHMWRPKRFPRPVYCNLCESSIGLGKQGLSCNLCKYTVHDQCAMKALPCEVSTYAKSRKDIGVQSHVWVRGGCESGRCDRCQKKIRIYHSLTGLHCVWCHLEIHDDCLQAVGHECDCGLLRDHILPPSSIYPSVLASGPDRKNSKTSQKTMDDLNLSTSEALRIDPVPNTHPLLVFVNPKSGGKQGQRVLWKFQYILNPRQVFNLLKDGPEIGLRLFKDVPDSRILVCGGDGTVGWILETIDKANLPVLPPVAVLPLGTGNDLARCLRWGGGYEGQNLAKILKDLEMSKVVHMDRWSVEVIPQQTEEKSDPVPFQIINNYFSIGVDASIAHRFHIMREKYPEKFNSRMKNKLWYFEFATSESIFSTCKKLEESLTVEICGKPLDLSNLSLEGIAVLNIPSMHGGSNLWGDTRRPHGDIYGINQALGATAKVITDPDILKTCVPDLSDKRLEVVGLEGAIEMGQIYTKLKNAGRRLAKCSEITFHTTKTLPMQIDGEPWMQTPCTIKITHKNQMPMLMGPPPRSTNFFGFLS

Row | SMILES | effect on RICD in control siRNA-transfected cells [1] | inhibition at 100 µM ([2]; 100 µM) | remaining activity at 100 µM ([2]; 100 µM) | IC50 [2] | rescue of RICD (apoptosis) in SAP-deficient T cells [1]
1 | Cc1ccc2c(C(=O)CN3CCN(C(=O)c4ccco4)CC3)c(C)[nH]c2c1 [Amb639752] | slightly reducing | 96% | 4% | 6900 ± 3000 nM | –
2 | Cc1ccc2c(C(=O)CN3CCN(C(=O)c4ccc(Cl)cc4)CC3)c(C)[nH]c2c1 [Compound 11, 2-(4-(4-Chlorobenzoyl)piperazin-1-yl)-1-(2,6-dimethyl-1H-indol-3-yl)ethan-1-one] | slightly reducing | – | 6% | 1600 nM | restore apoptosis
3 | Cc1ccc(C(=O)N2CCN(CC(=O)c3c(C)[nH]c4cc(C)ccc34)CC2)cc1 [Compound 20, 1-(2,6-Dimethyl-1H-indol-3-yl)-2-(4-(4-methylbenzoyl)piperazin-1-yl)ethan-1-one] | – | – | 3% | 1800 nM | restore apoptosis
